PubChem BioAssay AID2060344 (Molecular Pharmacology Branch, DTP, NCI, 2025)
Several values for one entry are separate records, joined by “and”; a condition that tells them apart may be missing. Equal values may be shown once.

System: SK-MEL-2 multi-cell spheroids, viability
Experiment: Anticancer human tumor SK-MEL-2 cell line growth inhibition [TAK];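 further: spheroids exposed to drugs for seven days before readout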;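 on viability, T/C: percent of DMSO vehicle control luminescence so 100% = untreated viability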
Conditions: for viability, T/C: stronger effect = lower value
Source text: Combinatorial screen of targeted agents with TAK-243 and ipatasertib in multi-cell type tumor spheroids
A high-throughput screen of multi-cell type tumor spheroids was designed to identify active combinations of targeted small molecules and TAK-243 or ipatasertib. Complex spheroids include a stromal component modeled by human endothelial cells (HUVEC) and fibroblasts modeled by human mesenchymal stem cells (MSCs). The concentration ranges selected for each drug and investigational agent were based upon clinically achievable concentrations if the clinical Cmax of the agent was known.
Compounds. The drugs and investigational agents: TAK-243 (785004), ipatasertib (767898), everolimus (733504), selumetinib (741078), bortezomib (756655), trametinib (758246), ixazomib (758254), vemurafenib (761431), dabrafenib (764134), sapanisertib (764658), alpelisib (765974), and copanlisib (816437), were obtained from the National Cancer Institute (NCI) Developmental Therapeutics Program Chemical Repository. The FDA-approved anticancer drug set is available from the NCI Developmental Therapeutics Program. […] The stock solutions were prepared in dimethyl sulfoxide (DMSO, Sigma-Aldrich, St. Louis, MO, cat. D2650) at 800-fold the tested concentration and stored at -70 degrees C prior to their use. All drugs and investigational agents were tested over a range starting from a high concentration at or near the clinical Cmax and decreasing in half-log increments. If the clinical Cmax for an agent had not been determined, the highest concentration tested was 10 microM.
NCI60 Cell Culture. NCI60 cell lines were obtained from the NCI Developmental Therapeutics Program Tumor Repository. For each lot of cells, the Repository performed Applied Biosystems AmpFLSTR Identifiler testing with PCR amplification to confirm consistency with the published Identifier STR profile for each cell line. Cells were kept in continuous culture for no more than 20 passages. The optimal seeding densities for each of the cell lines at each time point assessed were determined prior to performing the concentration response studies. Briefly, the NCI60 human tumor lines were grown as monolayers in RPMI 1640 medium supplemented with 10% FBS and 2 mmol/L L-glutamine.
An additional 2 lines were from the NCI60 cell line panel including melanomas, MALME-3M and SK-MEL-2. Pooled donor human umbilical vein endothelial cells (HUVEC, Lonza, cat. CC-2519) and human mesenchymal stem cells (hMSC, Lonza, cat. PT-2501) were purchased from Lonza (Walkersville, MD).
PDMR cell lines were grown in complete medium (DC medium): Dulbecco's modified Eagle's medium (DMEM)/F12 supplemented with 5% fetal bovine serum (FBS), 2 mM L-glutamine, 100 U/mL penicillin and 100 µg/ml streptomycin, 0.4 µg/ml hydrocortisone, 10 ng/ml epidermal growth factor (EGF) recombinant human protein, 24 µg/mL adenine, and 0.1 mg/mL primocin. During culture from frozen stock vials, PDMR cells were cultured in the same medium containing 10 µM Y-27632 (see Table 3). The PDCs were cultured in complete DMEM/F12 media without 10 microM Y-27632 dihydrochloride for at least two passages prior to the screen. The pooled donor HUVEC and hMSC were cultured in endothelial cell growth medium 2 (PromoCell, Heidelberg, Germany, cat. C-22011) and mesenchymal stem cell growth medium 2 (PromoCell, cat. C-28009), respectively. For all experiments, HUVEC and hMSC were used at passages </=5.
For the pre-screen, cell seeding densities were determined from a titration spanning the range from 5,000 to 313 cells per well. The mct-spheroids including 60% malignant cells, 25% HUVEC and 15% MSC dispensed as a mixture into U-bottom Ultra-Low Attachment 384-well plates (Corning, NY)
High-throughput Drug Combination Screening.
Prior to their inoculation into 384-well plates, malignant cells, HUVEC, and hMSC were removed from T flasks using TrypLE express (Thermo Fisher Scientific, cat. 12605036) and harvested by centrifugation for 5 min at 233 x g. […]

[1] = curve of first compound, second compound 0.3 µM
[2] = curve of first compound, second compound 0.949 µM
[3] = curve of first compound, second compound 3 µM
[4] = curve of first compound, second compound 9.49 µM
[5] = curve of first compound, second compound 30 µM
[6] = second compound 0.3 µM, first compound 0.0316 µM
[7] = second compound 0.3 µM, first compound 0.1 µM
[8] = second compound 0.3 µM, first compound 0.316 µM
[9] = second compound 0.3 µM, first compound 1 µM
[10] = second compound 0.3 µM, first compound 3.16 µM
[11] = second compound 0.3 µM, first compound 10 µM
[12] = second compound 0.949 µM, first compound 0.0316 µM
[13] = second compound 0.949 µM, first compound 0.1 µM
[14] = second compound 0.949 µM, first compound 0.316 µM
[15] = second compound 0.949 µM, first compound 1 µM
[16] = second compound 0.949 µM, first compound 3.16 µM
[17] = second compound 0.949 µM, first compound 10 µM
[18] = second compound 3 µM, first compound 0.0316 µM
[19] = second compound 3 µM, first compound 0.1 µM
[20] = second compound 3 µM, first compound 0.316 µM
[21] = second compound 3 µM, first compound 1 µM
[22] = second compound 3 µM, first compound 3.16 µM
[23] = second compound 3 µM, first compound 10 µM
[24] = second compound 9.49 µM, first compound 0.0316 µM
[25] = second compound 9.49 µM, first compound 0.1 µM
[26] = second compound 9.49 µM, first compound 0.316 µM
[27] = second compound 9.49 µM, first compound 1 µM
[28] = second compound 9.49 µM, first compound 3.16 µM
[29] = second compound 9.49 µM, first compound 10 µM
[30] = second compound 30 µM, first compound 0.0316 µM
[31] = second compound 30 µM, first compound 0.1 µM
[32] = second compound 30 µM, first compound 0.316 µM
[33] = second compound 30 µM, first compound 1 µM
[34] = second compound 30 µM, first compound 3.16 µM
[35] = second compound 30 µM, first compound 10 µM

SMILES | IC50 [1] | IC50 [2] | IC50 [3] | IC50 [4] | IC50 [5] | viability, T/C [6] | viability, T/C [7] | viability, T/C [8] | viability, T/C [9] | viability, T/C [10] | viability, T/C [11] | viability, T/C [12] | viability, T/C [13] | viability, T/C [14] | viability, T/C [15] | viability, T/C [16] | viability, T/C [17] | viability, T/C [18] | viability, T/C [19] | viability, T/C [20] | other results
Cc1nc(NC(=O)N2CCCC2C(N)=O)sc1-c1ccnc(C(C)(C)C(F)(F)F)c1 (configuration not stated) + CC(C)NCC(C(=O)N1CCN(c2ncnc3c2C(C)CC3O)CC1)c1ccc(Cl)cc1 | > 10000 nM | > 10000 nM | > 10000 nM | > 10000 nM | 218 nM | 97% | 84.7% | 70.5% | 79.8% | 75.3% | 55.6% | 85% | 74.7% | 64.8% | 65.8% | 59.5% | 49.4% | 66.1% | 67.3% | 52.8% | viability, T/C [21]: 58.8%; viability, T/C [22]: 57.3%; viability, T/C [23]: 51.2%; viability, T/C [24]: 56%; viability, T/C [25]: 56.4%; viability, T/C [26]: 48.7%; viability, T/C [27]: 51.1%; viability, T/C [28]: 55.9%; viability, T/C [29]: 49.2%; viability, T/C [30]: 52.4%; viability, T/C [31]: 55.8%; viability, T/C [32]: 46.2%; viability, T/C [33]: 43.7%; viability, T/C [34]: 50.3%; viability, T/C [35]: 40%
CC(C)n1nc(-c2ccc3oc(N)nc3c2)c2c(N)ncnc21 |  |  |  |  |  |  |  |  |  |  |  |  |  |  |  |  |  |  |  |  | viability, T/C (compound 0.000316 µM): 109% and 105%; viability, T/C (compound 0.001 µM): 99.8% and 100%; viability, T/C (compound 0.00316 µM): 88.6% and 89.8%; viability, T/C (compound 0.01 µM): 86.9% and 76%; viability, T/C (compound 0.0316 µM): 52.2% and 55.5%; viability, T/C (compound 0.1 µM): 29.2% and 31.2%; IC50 (curve of compound): 41 nM and 41.1 nM
CC(C)(C)c1nc(-c2cccc(NS(=O)(=O)c3c(F)cccc3F)c2F)c(-c2ccnc(N)n2)s1 + CC(C)NCC(C(=O)N1CCN(c2ncnc3c2C(C)CC3O)CC1)c1ccc(Cl)cc1 | 590 nM | 496 nM | 323 nM | 285 nM | 230 nM | 138% | 118% | 75.9% | 28.6% | 12.5% | 17.2% | 119% | 109% | 66.3% | 25.6% | 8.33% | 15.6% | 108% | 105% | 50.1% | viability, T/C [21]: 15.7%; viability, T/C [22]: 6.41%; viability, T/C [23]: 11.7%; viability, T/C [24]: 88.1%; viability, T/C [25]: 85.5%; viability, T/C [26]: 46.5%; viability, T/C [27]: 9.65%; viability, T/C [28]: 4.3%; viability, T/C [29]: 10.2%; viability, T/C [30]: 73.1%; viability, T/C [31]: 73.8%; viability, T/C [32]: 41.1%; viability, T/C [33]: 9.6%; viability, T/C [34]: 5.11%; viability, T/C [35]: 10%
